Reference: ChEMBL document CHEMBL1681695, “Chroman and tetrahydroquinoline ureas as potent TRPV1 antagonists” (Bioorg Med Chem Lett, 2011)

Legend:
[1] = molecular target: Transient receptor potential cation channel subfamily V member 1 (Homo sapiens, UniProt Q8NER1); experiment: Antagonist activity at human TRPV1 assessed as inhibition of calcium influx; format: functional
CYP3A4 = CYP3A4 (Homo sapiens, UniProt P08684); experiment: Inhibition of CYP3A4 at 10 uM; format: ADME
[2] = Ratio of drug uptake in brain to plasma in rat; format: ADME
Rattus norvegicus [3] = experiment: Analgesic activity in rat assessed as inhibition of capsaicin-induced acute pain at 30 umol/kg, po; format: functional
Rattus norvegicus [4] = experiment: Antihyperalgesic activity in po dosed rat assessed as inhibition of carrageenan-induced hyperalgesia; format: functional
Rattus norvegicus [5] = experiment: Antihyperalgesic activity in po dosed rat assessed as inhibition of CFA-induced hyperalgesia; format: functional
Rattus norvegicus [6] = experiment: Analgesic activity in rat assessed as inhibition of MIA-induced osteoarthritis pain at 30 umol/kg, po; format: functional

Chain of Transient receptor potential cation channel subfamily V member 1 (Q8NER1 whole entry): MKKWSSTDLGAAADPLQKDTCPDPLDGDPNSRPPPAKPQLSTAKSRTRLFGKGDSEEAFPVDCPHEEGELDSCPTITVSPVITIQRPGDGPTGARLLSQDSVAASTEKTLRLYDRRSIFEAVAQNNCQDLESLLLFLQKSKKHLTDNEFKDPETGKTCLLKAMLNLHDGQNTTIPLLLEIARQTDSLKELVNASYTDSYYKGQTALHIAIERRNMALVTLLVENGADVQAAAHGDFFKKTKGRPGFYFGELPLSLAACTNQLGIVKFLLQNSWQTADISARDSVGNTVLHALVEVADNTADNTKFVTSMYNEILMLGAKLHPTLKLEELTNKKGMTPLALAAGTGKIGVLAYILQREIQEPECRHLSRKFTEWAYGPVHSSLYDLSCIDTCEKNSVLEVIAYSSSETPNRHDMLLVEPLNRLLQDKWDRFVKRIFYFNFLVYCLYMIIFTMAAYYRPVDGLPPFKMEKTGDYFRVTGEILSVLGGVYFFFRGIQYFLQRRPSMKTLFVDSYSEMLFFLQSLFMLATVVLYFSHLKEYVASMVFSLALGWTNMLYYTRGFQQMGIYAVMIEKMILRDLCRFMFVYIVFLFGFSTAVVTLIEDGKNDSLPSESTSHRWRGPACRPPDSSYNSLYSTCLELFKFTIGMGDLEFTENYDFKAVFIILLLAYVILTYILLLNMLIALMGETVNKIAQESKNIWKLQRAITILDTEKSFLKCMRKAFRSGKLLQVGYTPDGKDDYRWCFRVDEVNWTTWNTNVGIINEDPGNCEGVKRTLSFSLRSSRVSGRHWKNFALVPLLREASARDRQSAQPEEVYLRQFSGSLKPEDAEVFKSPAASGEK
Chain of CYP3A4 (P08684 whole entry): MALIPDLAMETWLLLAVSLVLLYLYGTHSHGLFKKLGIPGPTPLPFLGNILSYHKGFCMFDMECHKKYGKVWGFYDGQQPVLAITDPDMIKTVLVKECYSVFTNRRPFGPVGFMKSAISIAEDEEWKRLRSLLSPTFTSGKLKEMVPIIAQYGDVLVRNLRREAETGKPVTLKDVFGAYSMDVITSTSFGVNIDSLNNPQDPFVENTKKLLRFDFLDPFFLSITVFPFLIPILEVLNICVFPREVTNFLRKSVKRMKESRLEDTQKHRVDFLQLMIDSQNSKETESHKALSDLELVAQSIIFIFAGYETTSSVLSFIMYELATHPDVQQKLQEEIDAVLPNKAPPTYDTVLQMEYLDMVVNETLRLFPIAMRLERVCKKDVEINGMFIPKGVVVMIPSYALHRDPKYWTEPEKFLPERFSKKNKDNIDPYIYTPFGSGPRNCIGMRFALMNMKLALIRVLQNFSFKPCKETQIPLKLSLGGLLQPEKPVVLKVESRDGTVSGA

| SMILES | IC50 [1] [nM] | other results |
| --- | --- | --- |
| CC(C)(C)c1ccc2c(c1)C(NC(=O)Nc1cccc3[nH]ncc13)CCN2Cc1ccccc1 (stereo unspecified) | 121 | – |
| COc1ccc2c(c1)C(NC(=O)Nc1cccc3[nH]ncc13)CCN2Cc1ccccc1 (stereo unspecified) | 160 | inhibition at 10 µM (CYP3A4): 97% |
| O=C(Nc1cccc2[nH]ncc12)NC1CCOc2c(C3CCCCC3)cccc21 (stereo unspecified) | 15 | – |
| CN1CCC(NC(=O)Nc2cccc3[nH]ncc23)c2ccc(C(F)(F)F)cc21 (stereo unspecified) | – | inhibition at 10 µM (CYP3A4): 47% |
| O=C(Nc1cccc2[nH]ncc12)N[C@@H]1CCOc2cc(C(F)(F)F)ccc21 | 4 | – |
| O=C(Nc1cccc2[nH]ncc12)NC1CCOc2c1cccc2N1CCCCC1 (stereo unspecified) | 16 | – |
| O=C(Nc1cccc2[nH]ncc12)NC1CCN(Cc2ccccc2)c2ccccc21 (stereo unspecified) | 70 | inhibition at 10 µM (CYP3A4): 94% |
| CN1CCC(NC(=O)Nc2cccc3[nH]ncc23)c2ccc(C(C)(C)C)cc21 (stereo unspecified) | 115 | – |
| O=C(Nc1cccc2[nH]ncc12)NC1CCOc2ccccc21 (stereo unspecified) | 234 | – |
| CC(C)CCN1CCC(NC(=O)Nc2cccc3[nH]ncc23)c2cccc(Cl)c21 (stereo unspecified) | 11 | – |
| CN1CCC(NC(=O)Nc2cccc3[nH]ncc23)c2cc(C(C)(C)C)ccc21 (stereo unspecified) | 853 | – |
| CC(C)(C)c1ccc2c(c1)OCCC2NC(=O)Nc1cccc2[nH]ncc12 (stereo unspecified) | 43 | – |
| Cc1ccc2c(c1)C(NC(=O)Nc1cccc3[nH]ncc13)CCO2 (stereo unspecified) | 933 | – |

The remaining compounds from weak to strong by IC50 [1], led by results:

| IC50 [1] [nM] | SMILES | other results |
| --- | --- | --- |
| 1380 | COc1ccc2c(c1)C(NC(=O)Nc1cccc3[nH]ncc13)CCN2C (stereo unspecified) | inhibition at 10 µM (CYP3A4): 59% |
| 1200 | CC(C)(C)c1ccc2c(c1)OCC[C@@H]2NC(=O)Nc1cccc2[nH]ncc12 | – |
| 718 | O=C(Nc1cccc2[nH]ncc12)NC1CCOc2ccc(F)cc21 (stereo unspecified) | – |
| 215 | CN1CCC(NC(=O)Nc2cccc3[nH]ncc23)c2ccccc21 (stereo unspecified) | inhibition at 10 µM (CYP3A4): 65% |
| 196 | COc1ccc2c(c1)C(NC(=O)Nc1cccc3[nH]ncc13)CCN2CC1CCCCC1 (stereo unspecified) | inhibition at 10 µM (CYP3A4): 93% |
| 110 | O=C(Nc1cccc2[nH]ncc12)NC1CCOc2c1cccc2N1CCOCC1 (stereo unspecified) | – |
| 66 | O=C(Nc1cccc2[nH]ncc12)NC1CCN(Cc2ccccc2)c2ccc(F)cc21 (stereo unspecified) | – |
| 43 | O=C(Nc1cccc2[nH]ncc12)N[C@H]1CCOc2cc(C(F)(F)F)ccc21 | – |
| 34 | CN1CCC(NC(=O)Nc2cccc3[nH]ncc23)c2ccc(F)cc21 (stereo unspecified) | inhibition at 10 µM (CYP3A4): 66% |
| 31 | CC(C)(C)c1ccc2c(c1)OCC[C@H]2NC(=O)Nc1cccc2[nH]ncc12 | – |
| 19 | CC(C)(C)c1cccc2c1OCC[C@@H]2NC(=O)Nc1cccc2[nH]ncc12 | – |
| 8 | O=C(Nc1cccc2[nH]ncc12)NC1CCOc2cc(OC(F)(F)F)ccc21 (stereo unspecified) | – |
| 6 | CN1CCC(NC(=O)Nc2cccc3[nH]ncc23)c2cccc(C(C)(C)C)c21 (stereo unspecified) | – |
| 5 | O=C(Nc1cccc2[nH]ncc12)NC1CCOc2c(OC(F)(F)F)cccc21 (stereo unspecified) | – |
| 5 | O=C(Nc1cccc2[nH]ncc12)NC1CCOc2c1cccc2C(F)(F)F (stereo unspecified) | – |
| 5 | CC(C)(C)c1cccc2c1OCCC2NC(=O)Nc1cccc2[nH]ncc12 (stereo unspecified) | Kp [2]: 0.42; inhibition in vivo at 30 µmol/kg (Rattus norvegicus [3]): 89%; ED50 (Rattus norvegicus [4]): 10 µmol/kg; ED50 (Rattus norvegicus [5]): 15 µmol/kg; inhibition in vivo at 30 µmol/kg (Rattus norvegicus [6]): 56% |
| 3 | CC(C)(C)c1cccc2c1OCC[C@H]2NC(=O)Nc1cccc2[nH]ncc12 | – |
